# Source: patent US7563805B2, “Tri-, tetra-substituted-3-aminopyrrolidine derivative” (Daiichi Pharmaceutical Co., Ltd., priority 2005, dated 2009)
# Like-named read-outs stand apart in the source and are kept apart here.
# Experiments:
# [1] = system: Mycobacterium tuberculosis (sensitive bacteria); assay: anti-Mycobacterium tuberculosis (sensitive bacteria) activity, MIC; format: cell-based
# [2] = system: E. faecalis, ATCC 19433; assay: antibacterial activity (MIC), standard method of Japanese Society of Chemotherapy; conditions: E. faecalis
# [3] = potential convulsant activity upon intracisternal administration, with and without 4-biphenyl acetic acid (BPAA); conditions: 5 μg/5 μL/mouse i. cist
# Protocol: The potential convulsant activity upon intracisternal administration to mouse was also evaluated for the concomitant and administration with 4-biphenyl acetic acid (BPAA: an active metabolite of fenbufen) and in the absence of such concomitant administration. The evaluation was conducted by using 4 week old male Slc:ddY mice (6 animals per group) and intracisternally administering the test substance at a dose of 5 μg/5 μL/mouse (solvent, 0.5% lactic acid). Monitoring of the animals for the convulsion and death was started immediately after the administration and continued to 30 minutes after the administration. When used concomitantly with the BPAA, BPAA was suspended in 5% CMC, and 400 mg/kg was orally administered at a solution amount of 10 mL/kg, and the test substance was intracisternally administered 30 minutes after the BPAA.
# [4] = design: species or system guinea pigs (Slc:Hertley); conditions: male, Slc:Hertley, guinea pig, in vivo
# Protocol: Guinea pig maximization test (GPMT) which is a widely accepted model for delayed antigenicity was conducted according to the method of Mugnusson et al. (J. invest. Dermatol., 52, 1969) by using a cutaneous sensitization concentration of 1% and a patch sensitization and induction concentration of 10%. At day 1, the animal was sensitized by cutaneously administering the test substance (the quinolone compounds and the control: vehicle, vaseline) (1% solution in physiological saline+FCA emulsion) at the back of the head of the shaved guinea pigs (7 week old male Slc:Hertley). At day 7, lauryl sodium sulfate (SLC) was applied for stimulus (adjuvant treatment), and on the next day, the test substance coated on a wax paper was patched onto the shaved skin to for sealed sensitization, and after 48 hours (at day 10), the waxed paper was removed. The skin reaction was observed upon the removal. On day 22, the test substance (10%) was patched onto the anterior side of the body for induction, and the induction patching was removed after 24 hours. On the next day (at day 24) and the next day (at day 25), the skin reaction was evaluated according to the description of the document as mentioned above. Erythema and edema were scored, and the case with the total score of 2 or higher was evaluated to be positive with the maximum of the score being 7.
# [5] = system: penicillin resistant Streptococcus pneumoniae (PRSP) strain 033806; assay: mouse local lung infection model by PRSP
# [6] = system: S. aureus, 209P; assay: antibacterial activity (MIC), standard method of Japanese Society of Chemotherapy; conditions: Staphylococcus aureus
# [7] = system: P. vulgaris, 08601; assay: as above; conditions: Proteus vulgaris, 08601, P. vulgaris
# [8] = molecular target: CYP3A4 (Homo sapiens, UniProt P08684); assay: mechanism-based inhibition (MBI) of CYP3A4, hydroxylation at position 1 of midazolam; conditions: inhibition of midazolam 1-hydroxylation; dependence on preincubation time and drug concentration (FIG. 1)
# CYP3A4, sequence (P08684 whole entry): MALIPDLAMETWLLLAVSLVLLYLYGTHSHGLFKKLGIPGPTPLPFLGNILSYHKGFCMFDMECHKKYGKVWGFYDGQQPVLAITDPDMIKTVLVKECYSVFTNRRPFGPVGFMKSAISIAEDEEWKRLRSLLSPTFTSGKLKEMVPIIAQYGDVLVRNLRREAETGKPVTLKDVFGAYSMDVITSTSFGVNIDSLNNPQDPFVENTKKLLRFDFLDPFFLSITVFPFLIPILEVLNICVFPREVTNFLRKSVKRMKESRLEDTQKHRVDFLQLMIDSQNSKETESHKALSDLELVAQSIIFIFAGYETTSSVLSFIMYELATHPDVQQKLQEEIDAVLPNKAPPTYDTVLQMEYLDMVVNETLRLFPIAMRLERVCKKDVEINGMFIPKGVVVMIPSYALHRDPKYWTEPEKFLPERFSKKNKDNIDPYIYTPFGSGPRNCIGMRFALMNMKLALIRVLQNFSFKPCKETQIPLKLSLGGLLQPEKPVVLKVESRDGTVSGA
# Protocol: Mechanism-based inhibition (MBI) of CYP3A4 was evaluated by using inhibition of hydroxylation at position 1 of midazolam.
# [9] = system: bone marrow cells (polychromatic erythrocytes); assay: mouse bone marrow micronucleus test; format: in vivo, Slc:ddY male mice; conditions: single i.v. dose, 24 h, Example 2: 50, 100 mg/kg, Example 3: 100, 150 mg/kg, Example 9: 50, 100, 150 mg/kg
# Protocol: The control was 0.1 mol/l NaOH/physiological saline solvent, and the positive control was cyclophosphamide (cyclophoshamide, CP) dissolved and diluted in physiological saline. All samples were sterilized by filtering through Milex GS filter (0.22 μm). Each solution was intravenously administered at a dose of 10 mL/kg in single dose at an administration rate of 0.2 mL/min.
# Bone marrow cells were collected from thigh bone at 24 hours after the administration, and smear preparation was prepared. After staining with acridine orange, 1000 polychromatic erythrocytes per animal were observed under fluorescence microscope to count frequency of micrronucleated polychromatic erythrocyte and ratio of the orthochromatic erythrocytes to the polychromatic erythrocyte in 1000 erythrocytes.
# [10] = system: S. epidermidis, 56500; assay: antibacterial activity (MIC), standard method of Japanese Society of Chemotherapy; conditions: Staphylococcus epidermidis, 56500, S. epidermidis
# [11] = system: E. coli strain E77156; assay: rat simple cystitis model (E. coli); format: in vivo
# [12] = system: S. pneumoniae, J24 (penicillin-intermediate resistant bacteria); assay: antibacterial activity (MIC), standard method of Japanese Society of Chemotherapy
# [13] = format: in vivo; conditions: 30 minutes observation
# Protocol: The test substance was intracisternally administered to male Slc:ddy mice (6 animals per group), and the convulsion and death were monitored for each cage until 30 minutes after the administration. The test substance was dissolved in 5 μl of 1% aqueous solution of lactic acid, and the dose was 5, 15, or 50 μg per animal.
# [14] = system: E. coli NIHJ; assay: antibacterial activity (MIC), standard method of Japanese Society of Chemotherapy; conditions: Escherichia coli
# [15] = system: S. marscecens, 10100; assay: as above
# [16] = system: P. aeruginosa, 32104; assay: as above; conditions: Pseudomonas aeruginosa
# [17] = system: S. aureus, 87037 (LVFX-resistant MRSA); assay: as above; conditions: Staphylococcus aureus, MRSA, S. aureus, 87037 (LVFX-resistant MRSA)
# [18] = (with BPAA 400 mg/kg oral, 30 minutes before)
structure (smiles),measurement,setting,value
"COc1c(N2CC(C)(N)C3(CC3)C2)c(F)cc2c(=O)c(C(=O)O)cn([C@@H]3C[C@@H]3F)c12 (stereo partly drawn) [Example 9, 7-(7-Amino-7-methyl-5-azaspiro[2.4]heptan-5-yl)-6-fluoro-1-[(1R,2S)-2-fluorocyclopropyl]-8-methoxy-1,4-dihydro-4-oxoquinoline-3-carboxylic acid]",MIC,"[1]; H37RV, strain H37Rv",0.03 µg/mL
same,MIC,[1]; strain Kurono,0.03 µg/mL
same,MIC,[1]; strain Ravenel,0.03 µg/mL
same,MIC,[1]; strain TB-s 2,0.06 µg/mL
same,MIC,[1]; strain TB-s 3,0.06 µg/mL
same,MIC,[1]; strain TB-s 4,0.06 µg/mL
same,MIC,[1]; strain TB-s 5,0.06 µg/mL
same,MIC,[1]; strain TB-s 6,0.06 µg/mL
same,MIC,[1]; strain TB-s 7,0.06 µg/mL
same,MIC,[1]; strain TB-s 8,0.03 µg/mL
same,MIC,[1]; strain TB-s 9,0.06 µg/mL
same,MIC,[1]; strain TB-s 10,0.03 µg/mL
same,MIC,[1]; strain TB-s 11,0.06 µg/mL
same,MIC,[1]; strain TB-s 12,0.125 µg/mL
same,MIC,[1]; strain TB-s 13,0.06 µg/mL
same,MIC,[1]; strain TB-s 14,0.06 µg/mL
same,MIC,[1]; strain TB-s 15,0.06 µg/mL
same,MIC,[1]; strain TB-s 16,0.06 µg/mL
same,MIC,[1]; strain TB-s 17,0.06 µg/mL
same,MIC,[1]; strain TB-s 18,0.06 µg/mL
same,MIC,[1]; strain TB-s 19,0.06 µg/mL
same,MIC,[1]; strain TB-s 20,0.06 µg/mL
same,MIC,[1]; strain TB-s 21,0.06 µg/mL
same,MIC,[1]; strain TB-s 22,0.03 µg/mL
same,MIC,[2],0.2 µg/mL
same,Number of animals which showed convulsion,[3]; [18],0/6 (0/6)
same,number of dead animals,[3]; [18],0/6 (0/6)
same,Number of animals which showed convulsion,[3]; (without BPAA),0/6 (0/6)
same,number of dead animals,[3]; (without BPAA),0/6 (0/6)
same,Average score in GPMT,[4],0
same,therapeutic effect (number of bacteria in the lung) compared with comparative compound 1 at the same dose,"[5]; CBA/JNCrlj mice, oral at 2 and 8 hours after infection, 25, 50, and 100 mg/kg/day (FIG. 2)",no significant difference
same,in vivo antibacterial activity for the test bacteria relative to comparative compound 1,[5]; PRSP strain 033806,about ¼
same,MIC,[6],0.025 µg/mL
same,MIC,[7],0.025 µg/mL
same,mechanism-based inhibition (MBI) of CYP3A4,[8],weak inhibition
same,"micronucleus induction rate versus control, evaluation result",[9],negative
same,MIC,[10],0.1 µg/mL
same,therapeutic effect compared with Comparative Compound 1,[11]; oral single dose 5 mg/kg/day,significantly stronger than the Comparative Compound 1
same,number of bacteria in the bladder,"[11]; oral single dose 20 or 80 mg/kg/day, next day of administration (FIG. 4)",significant decrease in the number of bacteria
same,MIC,[12],0.1 µg/mL
same,convulsant activity (animals affected / 6 animals per group),[13]; 5 μg/mouse intracisternal,0/6
same,convulsant activity (animals affected / 6 animals per group),[13]; 15 μg/mouse intracisternal,2/6
same,convulsant activity (animals affected / 6 animals per group),[13]; 50 μg/mouse intracisternal,6/6
same,MIC,[14],0.025 µg/mL
same,MIC,[15],0.1 µg/mL
same,MIC,[16],0.39 µg/mL
same,MIC,[17],0.78 µg/mL
